Results taken from patent US20130023553A1, “PEGYLATED OPIOIDS WITH LOW POTENTIAL FOR ABUSE AND SIDE EFFECTS” (Nektar Therapeutics, priority 2010, published 2013).
pKi: −log10 of the molar value.

Tests used:
human mu opioid receptor = target: T1, human mu opioid receptor (Homo sapiens, UniProt P35372); assay: biochemical; type: binding; conditions: CHO-K1 membranes, [3H]DAMGO 6 nM; read-out: Ki, Mu opioid receptor
T1 construct: expressed in transfected cells; host or cells: CHO cells

Male CD-1 mice = assay: Assessment of CNS side effects in mice (Straub tail, muscle rigidity, pinna reflex)
Excerpt: The objective of this study was to provide an approximation of the side effect profile of various oligomeric conjugates for comparison to the parent compounds by measuring various gross behavioral and physiological signs following administration of compound.
Additional evaluations included muscle rigidity and pinna reflex.
Male CD-1 mice from Charles River Laboratories, Raleigh, N.C., weighing from 16-18 grams were maintained on a regular light/dark cycle (lights on 0600-1800) with ad libitum food and water for 1 week before commencement of testing. N=2 per treatment condition, i.e., separate mice for each dose of each test article, injection was performed via a 25-gauge ⅝-inch needle on a 1-mL tuberculin syringe for the s.c. route and a 22-gauge stainless steel mouse feeding tube for the p.o. route (Becton, Dickinson & Co., Franklin Lakes, N.J.). Each treatment condition was divided about evenly between two observers. […] Test article was administered (s.c. or p.o., and the mouse was placed immediately in the observation chamber). One-half, 1, 2, and 3 hours later, the animal was observed undisturbed for gross signs such as locomotor ataxia, tremor, hyperactivity, hypoactivity, convulsions, hindlimb splay, and Straub tail, and then removed and assessed for muscle tone (normal, rigid, flaccid), pinna reflex (presence or absence), righting reflex (intact or lost), and placing (whether or not the forepaws are extended when the mouse is placed near a surface).
Each of the tables show the number of animals responding at each dose, where N=2. […] A bolded value indicates the lowest dose at which a response was detected.

T1 sequence (P35372 whole entry): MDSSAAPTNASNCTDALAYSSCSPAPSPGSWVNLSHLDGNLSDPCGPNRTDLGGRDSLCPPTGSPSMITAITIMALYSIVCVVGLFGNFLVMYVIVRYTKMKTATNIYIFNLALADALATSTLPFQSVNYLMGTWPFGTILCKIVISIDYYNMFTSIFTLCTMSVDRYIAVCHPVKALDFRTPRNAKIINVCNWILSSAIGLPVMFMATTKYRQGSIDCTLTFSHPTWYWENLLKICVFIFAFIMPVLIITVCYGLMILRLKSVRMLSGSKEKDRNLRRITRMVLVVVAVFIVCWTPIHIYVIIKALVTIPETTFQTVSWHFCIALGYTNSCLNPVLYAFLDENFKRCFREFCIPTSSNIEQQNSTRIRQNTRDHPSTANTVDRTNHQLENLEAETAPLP

COCCOCCOCCOCCOCCOCCOC1CCC2(O)C3Cc4ccc(OC)c5c4C2(CCN3C)C1O5 (stereo not drawn) [α-6-mPEG6-O-hydroxycodone, α-6-mPEG6-O-oxycodone]
pKi (human mu opioid receptor): 5.72 | Loss Pinna, fold difference relative to parent compound (Male CD-1 mice; PO, 1/2 responding): >> | Muscle Rigidity, fold difference relative to parent compound (Male CD-1 mice; PO, 1/2 responding): >100 fold | Straub Tail, fold difference relative to parent compound (Male CD-1 mice; PO, 1/2 responding): 100 fold | Loss Pinna, fold difference relative to parent compound (Male CD-1 mice; PO, 2/2 responding): >> | Muscle Rigidity, fold difference relative to parent compound (Male CD-1 mice; PO, 2/2 responding): >30 fold | Straub Tail, fold difference relative to parent compound (Male CD-1 mice; PO, 2/2 responding): >100 fold | Loss Pinna, fold difference relative to parent compound (Male CD-1 mice; SC, 1/2 responding): >30 fold | Muscle Rigidity, fold difference relative to parent compound (Male CD-1 mice; SC, 1/2 responding): 100 fold | Straub Tail, fold difference relative to parent compound (Male CD-1 mice; SC, 1/2 responding): 100 fold | Loss Pinna, fold difference relative to parent compound (Male CD-1 mice; SC, 2/2 responding): 33 fold | Muscle Rigidity, fold difference relative to parent compound (Male CD-1 mice; SC, 2/2 responding): 100 fold | Straub Tail, fold difference (reduction in CNS activity) relative to parent compound (Male CD-1 mice; SC, 2/2 responding): 100 fold | decrease in CNS activity relative to parent opioid (Male CD-1 mice; male, CD-1, mouse, in vivo, oral): 10-100 fold | mice showing the straub tail response (Male CD-1 mice; oral doses up to 100 mg/kg): none | Loss Pinna, number of animals responding (N=2) (Male CD-1 mice; oral, 1 mg/kg): 0 | Muscle Rigidity, number of animals responding (N=2) (Male CD-1 mice; oral, 1 mg/kg): 0 | Straub Tail Effect, number of animals responding (N=2) (Male CD-1 mice; oral, 1 mg/kg): 0 | Loss Pinna, number of animals responding (N=2) (Male CD-1 mice; oral, 3 mg/kg): 0 | Muscle Rigidity, number of animals responding (N=2) (Male CD-1 mice; oral, 3 mg/kg): 0 | Straub Tail Effect, number of animals responding (N=2) (Male CD-1 mice; oral, 3 mg/kg): 0 | Loss Pinna, number of animals responding (N=2) (Male CD-1 mice; oral, 10 mg/kg): 0 | Muscle Rigidity, number of animals responding (N=2) (Male CD-1 mice; oral, 10 mg/kg): 0 | Straub Tail Effect, number of animals responding (N=2) (Male CD-1 mice; oral, 10 mg/kg): 0 | Loss Pinna, number of animals responding (N=2) (Male CD-1 mice; oral, 30 mg/kg): 0 | Muscle Rigidity, number of animals responding (N=2) (Male CD-1 mice; oral, 30 mg/kg): 0 | Straub Tail Effect, number of animals responding (N=2) (Male CD-1 mice; oral, 30 mg/kg): 0 | Loss Pinna, number of animals responding (N=2) (Male CD-1 mice; oral, 100 mg/kg): 0 | Muscle Rigidity, number of animals responding (N=2) (Male CD-1 mice; oral, 100 mg/kg): 1 | Straub Tail Effect, number of animals responding (N=2) (Male CD-1 mice; oral, 100 mg/kg): 0 | Loss Pinna, number of animals responding (N=2) (Male CD-1 mice; oral, 300 mg/kg): 0 | Muscle Rigidity, number of animals responding (N=2) (Male CD-1 mice; oral, 300 mg/kg): 1 | Straub Tail Effect, number of animals responding (N=2) (Male CD-1 mice; oral, 300 mg/kg): 1 | lowest dose causing a detectable response in the straub test (Male CD-1 mice; oral, highest dose tested): 300 mg/kg
